Tested on: D. melanogaster nAChRs
Test: Comparison of agonist activity between nAChRs expressed in X. laevis oocytes (one-way ANOVA, Kruskal-Wallis);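 for Difference of Imax values: Imax relative to maximal plateau response to ACh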
Format: cell-based
Procedure, shortened: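 D. melanogaster nAChR subunits and co-factors expressed in X. laevis oocytes by cRNA injection, recorded after 3–4 days by two-electrode voltage clamp at −100 mV in saline with 0.5 μM atropine. Peak currents fitted to a Hill equation for EC50; pEC50 differences tested by one-way ANOVA or Kruskal-Wallis.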

[1] = Dα1/Dα2/Dα3/Dβ1 vs. Dα1/Dα2/Dα3/Dβ1/Dβ2
[2] = Dα1/Dα2/Dα3/Dβ1 vs. Dα1/Dα2/Dβ1/Dβ2
[3] = Dα1/Dα2/Dα3/Dβ1 vs. Dα1/Dα3/Dβ1/Dβ2
[4] = Dα1/Dα2/Dα3/Dβ1 vs. Dα1/Dβ1/Dβ2
[5] = Dα1/Dα2/Dα3/Dβ1 vs. Dα2/Dα3/Dβ1/Dβ2
[6] = Dα1/Dα2/Dα3/Dβ1 vs. Dα3/Dβ1/Dβ2
[7] = Dα1/Dα2/Dβ1/Dβ2 vs. Dα1/Dα2/Dα3/Dβ1/Dβ2
[8] = Dα1/Dα2/Dβ1/Dβ2 vs. Dα2/Dα3/Dβ1/Dβ2
[9] = Dα1/Dα2/Dβ1 vs. Dα1/Dα2/Dα3/Dβ1
[10] = Dα1/Dα2/Dβ1 vs. Dα1/Dα2/Dα3/Dβ1/Dβ2
[11] = Dα1/Dα2/Dβ1 vs. Dα1/Dα2/Dβ1/Dβ2
[12] = Dα1/Dα2/Dβ1 vs. Dα1/Dα3/Dβ1/Dβ2
[13] = Dα1/Dα2/Dβ1 vs. Dα2/Dα3/Dβ1/Dβ2
[14] = Dα1/Dα3/Dβ1/Dβ2 vs. Dα1/Dα2/Dα3/Dβ1/Dβ2
[15] = Dα1/Dα3/Dβ1/Dβ2 vs. Dα1/Dα2/Dβ1/Dβ2
[16] = Dα1/Dα3/Dβ1/Dβ2 vs. Dα2/Dα3/Dβ1/Dβ2
[17] = Dα1/Dα3/Dβ1 vs. Dα1/Dα2/Dα3/Dβ1
[18] = Dα1/Dα3/Dβ1 vs. Dα1/Dα2/Dα3/Dβ1/Dβ2
[19] = Dα1/Dα3/Dβ1 vs. Dα1/Dα2/Dβ1/Dβ2
[20] = Dα1/Dα3/Dβ1 vs. Dα1/Dα3/Dβ1/Dβ2
[21] = Dα1/Dα3/Dβ1 vs. Dα2/Dα3/Dβ1/Dβ2
[22] = Dα1/Dβ1/Dβ2 vs. Dα1/Dα2/Dα3/Dβ1/Dβ2
[23] = Dα1/Dβ1/Dβ2 vs. Dα1/Dα2/Dβ1/Dβ2
[24] = Dα1/Dβ1/Dβ2 vs. Dα1/Dα3/Dβ1/Dβ2
[25] = Dα1/Dβ1/Dβ2 vs. Dα2/Dα3/Dβ1/Dβ2
[26] = Dα1/Dβ1 vs. Dα1/Dα2/Dα3/Dβ1/Dβ2
[27] = Dα2/Dα3/Dβ1/Dβ2 vs. Dα1/Dα2/Dα3/Dβ1/Dβ2
[28] = Dα2/Dα3/Dβ1 vs. Dα1/Dα2/Dα3/Dβ1
[29] = Dα2/Dα3/Dβ1 vs. Dα1/Dα2/Dα3/Dβ1/Dβ2
[30] = Dα2/Dα3/Dβ1 vs. Dα1/Dα2/Dβ1/Dβ2
[31] = Dα2/Dα3/Dβ1 vs. Dα1/Dα3/Dβ1/Dβ2
[32] = Dα2/Dα3/Dβ1 vs. Dα2/Dα3/Dβ1/Dβ2
[33] = Dα3/Dβ1/Dβ2 vs. Dα1/Dα2/Dα3/Dβ1/Dβ2
[34] = Dα3/Dβ1/Dβ2 vs. Dα1/Dα2/Dβ1/Dβ2
[35] = Dα3/Dβ1/Dβ2 vs. Dα1/Dα3/Dβ1/Dβ2
[36] = Dα3/Dβ1/Dβ2 vs. Dα2/Dα3/Dβ1/Dβ2
[37] = Dα3/Dβ1 vs. Dα1/Dα2/Dα3/Dβ1/Dβ2

Structure (SMILES): N#C/N=C1\SCCN1Cc1ccc(Cl)nc1 [Thiacloprid, thiacloprid]
- Difference of pEC50 values, nAChRs compared (Dα1/Dα2/Dα3/Dβ1/Dβ2 vs. Dα1/Dα2/Dα4/Dβ1/Dβ2): 0.17
- Difference of pEC50 values, nAChRs compared (Dα1/Dα2/Dα3/Dβ1/Dβ2 vs. Dα1/Dα2/Dβ1/Dβ2/Dβ3): -0.53
- Difference of pEC50 values, nAChRs compared (Dα1/Dα2/Dα3/Dβ1/Dβ2 vs. Dα1/Dα3/Dα4/Dβ1/Dβ2): -0.78
- Difference of pEC50 values, nAChRs compared (Dα1/Dα2/Dα3/Dβ1/Dβ2 vs. Dα1/Dα3/Dβ1/Dβ2/Dβ3): -1.45
- Difference of pEC50 values, nAChRs compared (Dα1/Dα2/Dα3/Dβ1/Dβ2 vs. Dα2/Dα3/Dα4/Dβ1/Dβ2): -0.81
- Difference of pEC50 values, nAChRs compared (Dα1/Dα2/Dα3/Dβ1/Dβ2 vs. Dα2/Dα3/Dβ1/Dβ2/Dβ3): -1.13
- Difference of Imax values [1]: -0.012
- Difference of pEC50 values [1]: 0.55
- Difference of Imax values [2]: -0.027
- Difference of pEC50 values [2]: 0.63
- Difference of Imax values [3]: -0.060
- Difference of pEC50 values [3]: -0.27
- Difference of Imax values [4]: 0.004
- Difference of pEC50 values [4]: -0.13
- Difference of Imax values [5]: 0.030
- Difference of pEC50 values [5]: -0.35
- Difference of Imax values [6]: 0.025
- Difference of pEC50 values [6]: -0.59
- Difference of Imax values [7]: 0.015
- Difference of pEC50 values [7]: -0.08
- Difference of Imax values [8]: 0.057
- Difference of pEC50 values [8]: -0.98
- Difference of Imax values [9]: -0.022
- Difference of pEC50 values [9]: -0.81
- Difference of Imax values [10]: -0.034
- Difference of pEC50 values [10]: -0.26
- Difference of Imax values [11]: -0.049
- Difference of pEC50 values [11]: -0.18
- Difference of Imax values [12]: -0.082
- Difference of pEC50 values [12]: -1.08
- Difference of Imax values (Dα1/Dα2/Dβ1 vs. Dα1/Dβ1/Dβ2): -0.018
- Difference of pEC50 values (Dα1/Dα2/Dβ1 vs. Dα1/Dβ1/Dβ2): -0.94
- Difference of Imax values (Dα1/Dα2/Dβ1 vs. Dα2/Dα3/Dβ1): -0.020
- Difference of pEC50 values (Dα1/Dα2/Dβ1 vs. Dα2/Dα3/Dβ1): 0.00
- Difference of Imax values [13]: 0.008
- Difference of pEC50 values [13]: -1.16
- Difference of Imax values (Dα1/Dα2/Dβ1 vs. Dα3/Dβ1/Dβ2): 0.003
- Difference of pEC50 values (Dα1/Dα2/Dβ1 vs. Dα3/Dβ1/Dβ2): -1.40
- Difference of Imax values [14]: 0.048
- Difference of pEC50 values [14]: 0.82
- Difference of Imax values [15]: 0.033
- Difference of pEC50 values [15]: 0.90
- Difference of Imax values [16]: 0.090
- Difference of pEC50 values [16]: -0.08
- Difference of Imax values [17]: 0.000
- Difference of pEC50 values [17]: 0.34
- Difference of Imax values [18]: -0.012
- Difference of pEC50 values [18]: 0.89
- Difference of Imax values (Dα1/Dα3/Dβ1 vs. Dα1/Dα2/Dβ1): 0.022
- Difference of pEC50 values (Dα1/Dα3/Dβ1 vs. Dα1/Dα2/Dβ1): 1.15
- Difference of Imax values [19]: -0.027
- Difference of pEC50 values [19]: 0.97
- Difference of Imax values [20]: -0.060
- Difference of pEC50 values [20]: 0.07
- Difference of Imax values (Dα1/Dα3/Dβ1 vs. Dα1/Dβ1/Dβ2): 0.004
- Difference of pEC50 values (Dα1/Dα3/Dβ1 vs. Dα1/Dβ1/Dβ2): 0.21
- Difference of Imax values (Dα1/Dα3/Dβ1 vs. Dα2/Dα3/Dβ1): 0.002
- Difference of pEC50 values (Dα1/Dα3/Dβ1 vs. Dα2/Dα3/Dβ1): 1.15
- Difference of Imax values [21]: 0.030
- Difference of pEC50 values [21]: -0.01
- Difference of Imax values (Dα1/Dα3/Dβ1 vs. Dα3/Dβ1/Dβ2): 0.025
- Difference of pEC50 values (Dα1/Dα3/Dβ1 vs. Dα3/Dβ1/Dβ2): -0.25
- Difference of Imax values [22]: -0.016
- Difference of pEC50 values [22]: 0.68
- Difference of Imax values [23]: -0.031
- Difference of pEC50 values [23]: 0.76
- Difference of Imax values [24]: -0.064
- Difference of pEC50 values [24]: -0.14
- Difference of Imax values [25]: 0.026
- Difference of pEC50 values [25]: -0.22
- Difference of Imax values (Dα1/Dβ1/Dβ2 vs. Dα3/Dβ1/Dβ2): 0.021
- Difference of pEC50 values (Dα1/Dβ1/Dβ2 vs. Dα3/Dβ1/Dβ2): -0.46
- Difference of Imax values (Dα1/Dβ1 vs. Dα1/Dα2/Dα3/Dβ1): 0.044
- Difference of pEC50 values (Dα1/Dβ1 vs. Dα1/Dα2/Dα3/Dβ1): 0.06
- Difference of Imax values [26]: 0.032
- Difference of pEC50 values [26]: 0.61
- Difference of Imax values (Dα1/Dβ1 vs. Dα1/Dα2/Dβ1): 0.066
- Difference of pEC50 values (Dα1/Dβ1 vs. Dα1/Dα2/Dβ1): 0.87
- Difference of Imax values (Dα1/Dβ1 vs. Dα1/Dα2/Dβ1/Dβ2): 0.017
- Difference of pEC50 values (Dα1/Dβ1 vs. Dα1/Dα2/Dβ1/Dβ2): 0.69
- Difference of Imax values (Dα1/Dβ1 vs. Dα1/Dα3/Dβ1): 0.044
- Difference of pEC50 values (Dα1/Dβ1 vs. Dα1/Dα3/Dβ1): -0.28
- Difference of Imax values (Dα1/Dβ1 vs. Dα1/Dα3/Dβ1/Dβ2): -0.016
- Difference of pEC50 values (Dα1/Dβ1 vs. Dα1/Dα3/Dβ1/Dβ2): -0.21
- Difference of Imax values (Dα1/Dβ1 vs. Dα1/Dβ1/Dβ2): 0.048
- Difference of pEC50 values (Dα1/Dβ1 vs. Dα1/Dβ1/Dβ2): -0.07
- Difference of Imax values (Dα1/Dβ1 vs. Dα2/Dα3/Dβ1): 0.046
- Difference of pEC50 values (Dα1/Dβ1 vs. Dα2/Dα3/Dβ1): 0.87
- Difference of Imax values (Dα1/Dβ1 vs. Dα2/Dα3/Dβ1/Dβ2): 0.074
- Difference of pEC50 values (Dα1/Dβ1 vs. Dα2/Dα3/Dβ1/Dβ2): -0.29
- Difference of Imax values (Dα1/Dβ1 vs. Dα3/Dβ1): 0.075
- Difference of pEC50 values (Dα1/Dβ1 vs. Dα3/Dβ1): -0.01
- Difference of Imax values (Dα1/Dβ1 vs. Dα3/Dβ1/Dβ2): 0.069
- Difference of pEC50 values (Dα1/Dβ1 vs. Dα3/Dβ1/Dβ2): -0.53
- Difference of Imax values [27]: -0.042
- Difference of pEC50 values [27]: 0.90
- Difference of Imax values [28]: -0.002
- Difference of pEC50 values [28]: -0.81
- Difference of Imax values [29]: -0.014
- Difference of pEC50 values [29]: -0.26
- Difference of Imax values [30]: -0.029
- Difference of pEC50 values [30]: -0.18
- Difference of Imax values [31]: -0.062
- Difference of pEC50 values [31]: -1.08
- Difference of Imax values (Dα2/Dα3/Dβ1 vs. Dα1/Dβ1/Dβ2): 0.002
- Difference of pEC50 values (Dα2/Dα3/Dβ1 vs. Dα1/Dβ1/Dβ2): -0.94
- Difference of Imax values [32]: 0.028
- Difference of pEC50 values [32]: -1.16
- Difference of Imax values (Dα2/Dα3/Dβ1 vs. Dα3/Dβ1/Dβ2): 0.023
- Difference of pEC50 values (Dα2/Dα3/Dβ1 vs. Dα3/Dβ1/Dβ2): -1.40
- Difference of Imax values [33]: -0.037
- Difference of pEC50 values [33]: 1.14
- Difference of Imax values [34]: -0.052
- Difference of pEC50 values [34]: 1.22
- Difference of Imax values [35]: -0.085
- Difference of pEC50 values [35]: 0.32
- Difference of Imax values [36]: 0.005
- Difference of pEC50 values [36]: 0.24
- Difference of Imax values (Dα3/Dβ1 vs. Dα1/Dα2/Dα3/Dβ1): -0.031
- Difference of pEC50 values (Dα3/Dβ1 vs. Dα1/Dα2/Dα3/Dβ1): 0.07
- Difference of Imax values [37]: -0.043
- Difference of pEC50 values [37]: 0.62
- Difference of Imax values (Dα3/Dβ1 vs. Dα1/Dα2/Dβ1): -0.009
- Difference of pEC50 values (Dα3/Dβ1 vs. Dα1/Dα2/Dβ1): 0.88
- Difference of Imax values (Dα3/Dβ1 vs. Dα1/Dα2/Dβ1/Dβ2): -0.058
- Difference of pEC50 values (Dα3/Dβ1 vs. Dα1/Dα2/Dβ1/Dβ2): 0.70
- Difference of Imax values (Dα3/Dβ1 vs. Dα1/Dα3/Dβ1): -0.031
- Difference of pEC50 values (Dα3/Dβ1 vs. Dα1/Dα3/Dβ1): -0.27
- Difference of Imax values (Dα3/Dβ1 vs. Dα1/Dα3/Dβ1/Dβ2): -0.091
- Difference of pEC50 values (Dα3/Dβ1 vs. Dα1/Dα3/Dβ1/Dβ2): -0.20
- Difference of Imax values (Dα3/Dβ1 vs. Dα1/Dβ1/Dβ2): -0.027
- Difference of pEC50 values (Dα3/Dβ1 vs. Dα1/Dβ1/Dβ2): -0.06
- Difference of Imax values (Dα3/Dβ1 vs. Dα2/Dα3/Dβ1): -0.029
- Difference of pEC50 values (Dα3/Dβ1 vs. Dα2/Dα3/Dβ1): 0.88
- Difference of Imax values (Dα3/Dβ1 vs. Dα2/Dα3/Dβ1/Dβ2): -0.001
- Difference of pEC50 values (Dα3/Dβ1 vs. Dα2/Dα3/Dβ1/Dβ2): -0.28
- Difference of Imax values (Dα3/Dβ1 vs. Dα3/Dβ1/Dβ2): -0.006
- Difference of pEC50 values (Dα3/Dβ1 vs. Dα3/Dβ1/Dβ2): -0.52

Reference: publication PMC9934367, “Functional impact of subunit composition and compensation on Drosophila melanogaster nicotinic receptors–targets of neonicotinoids” (PLOS Genetics, 2023)
